# Laboratory results reported in patent US7834023B2 (Portola Pharmaceuticals, Inc., priority 2006, dated 2010).
# Columns and labels:
# P2Y12 receptor = target: T1, P2Y12 receptor (Homo sapiens, UniProt Q9H244); experiment: platelet ADP receptor binding assay (ARB): inhibition of [3H]2-MeS-ADP binding to platelets; settings: [3H]2-MeS-ADP binding to apyrase-washed human platelets
# T1 construct: endogenous in cells; host or cells: human platelets (outdated from blood banks or fresh), apyrase-washed, whole
# Method in brief: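 Apyrase-washed human platelets (1×10^8 per well) were preincubated 5 min with serial compound dilutions in Hepes-Tyrode's/0.1% BSA/0.6% DMSO, then incubated 15 min at room temperature with 1 nM [3H]2-MeS-ADP. Filter-bound radioactivity gave specific binding (nonspecific: 10 μM 2-MeS-ADP), and IC50s came from non-linear regression.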
# [1] = system: human platelet-rich plasma (PRP); experiment: PRP assay: inhibition of ADP-mediated platelet aggregation in vitro; assay type: cell-based; settings: Homo sapiens, Platelet, ADP-induced aggregation
# Experimental: The effect of testing the compound according to the invention on ADP-induced human platelet aggregation was assessed in a 96-well microtiter assay (see generally the procedures in Jantzen, H. M. et al. (1999) Thromb. Hemost. 81:111-117) or standard cuvette light transmittance aggregometry using either human platelet-rich plasma (PRP) or human washed platelets.
# For preparation of human platelet-rich plasma for aggregation assays, human venous blood was collected from healthy, drug-free volunteers into 0.38% sodium citrate (0.013 M, pH 7.0 final). Platelet-rich plasma (PRP) is prepared by centrifugation of whole blood at 160×g for 20 minutes at room temperature. The PRP layer is removed, transferred to a new tube, and the platelet count is adjusted, if necessary, to achieve a platelet concentration of ˜3×10^8 platelets/ml using platelet-poor plasma (PPP). PPP is prepared by centrifugation of the remaining blood sample (after removal of PRP) for 20 minutes at 800×g. This preparation of PRP can subsequently be used for aggregation assays in either a 96-well plate or standard cuvette aggregometry.
# For cuvette light transmittance aggregation assays, serial dilutions (1:3) of test compounds were prepared in 100% DMSO in a 96 well V-bottom plate (final DMSO concentration in the cuvette was 0.6%). The test compound (3 μl of serial dilutions in DMSO) was preincubated with PRP for 30-45 seconds prior to initiation of aggregation reactions, which were performed in a ChronoLog aggregometer by addition of agonist (5 or 10 μM ADP) to 490 μL of PRP at 37° C. In some cases, light transmittance aggregometry was performed using 490 μL of washed platelets (prepared as described above) at 37° C., and aggregation was initiated by addition of 5 μM ADP and 0.5 mg/ml human fibrinogen (American Diagnostics, Inc., Greenwich, Conn.). The aggregation reaction is recorded for ˜5 min, and maximum extent of aggregation is determined by the difference in extent of aggregation at baseline, compared to the maximum aggregation that occurs during the five minute period of the assay. Inhibition of aggregation was calculated as the maximum aggregation observed in the presence of inhibitor, compared to that in the absence of inhibitor. IC50s were derived by non-linear regression analysis using the Prism software (GraphPad, San Diego, Calif.).
# Inhibition of ADP-dependent aggregation was also determined in 96-well flat-bottom microtiter plates using a microtiter plate shaker and plate reader similar to the procedure described by Frantantoni et al., Am. J. Clin. Pathol. 94, 613 (1990). All steps are performed at room temperature. For 96-well plate aggregation using platelet-rich plasma (PRP), the total reaction volume of 0.2 ml/well includes 180 μl of PRP (˜3×10^8 platelets/ml, see above), 6 μl of either serial dilution of test compounds in 20% DMSO or buffer (for control wells), and 10 μl of 20×ADP agonist solution (100 μM). The OD of the samples is then determined at 450 nm using a microtiter plate reader (Softmax, Molecular Devices, Menlo Park, Calif.) resulting in the 0 minute reading. The plates are then agitated for 5 min on a microtiter plate shaker and the 5 minute reading is obtained in the plate reader. Aggregation is calculated from the decrease of OD at 450 nm at t=5 minutes compared to t=0 minutes and is expressed as % of the decrease in the ADP control samples after correcting for changes in the unaggregated control samples. IC50s were derived by non-linear regression analysis.
# T1 sequence (Q9H244 whole entry): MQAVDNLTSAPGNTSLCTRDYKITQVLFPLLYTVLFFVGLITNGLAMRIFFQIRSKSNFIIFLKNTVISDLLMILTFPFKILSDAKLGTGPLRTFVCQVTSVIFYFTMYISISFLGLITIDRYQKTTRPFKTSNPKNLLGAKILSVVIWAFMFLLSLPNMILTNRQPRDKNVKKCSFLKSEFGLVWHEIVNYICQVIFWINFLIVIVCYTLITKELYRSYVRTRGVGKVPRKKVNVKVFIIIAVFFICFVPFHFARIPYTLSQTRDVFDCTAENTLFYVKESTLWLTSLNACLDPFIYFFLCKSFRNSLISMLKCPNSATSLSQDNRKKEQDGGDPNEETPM
SMILES,IC50 (P2Y12 receptor) [nM],IC50 [1] [nM]
"CNc1cc2c(cc1F)C(=O)N(c1ccc(C(=O)NC(c3nnn(C)n3)c3ccc(Cl)s3)cc1)CO2 (stereo not shown) [Compound 74, N-((5-chlorothiophen-2-yl)(2-methyl-2H-tetrazol-5-yl)methyl)-4-(6-fluoro-7-(methylamino)-4-oxo-2H-benzo[e][1,3]oxazin-3(4H)-yl)benzamide]",50 to 500,> 30000
"CNc1cc2[nH]c(=O)n(-c3ccc(C(=O)NC(C(=O)OCCN4CCOCC4)c4ccc(Cl)s4)cc3)c(=O)c2cc1F (stereo not shown) [Compound 35, 2-morpholinoethyl 2-(5-chlorothiophen-2-yl)-2-(4-(6-fluoro-7-(methylamino)-2,4-dioxo-1,2-dihydroquinazolin-3(4H)-yl)benzamido)acetate]",50 to 500,10000 to 30000
"CNc1cc2[nH]c(=O)n(-c3ccc(C(=O)NC(C(=O)O)c4ccc(Cl)s4)c(C)c3)c(=O)c2cc1F (stereo not shown) [Compound 41, 2-(5-chlorothiophen-2-yl)-2-(4-(6-fluoro-7-(methylamino)-2,4-dioxo-1,2-dihydroquinazolin-3(4H)-yl)-2-methylbenzamido)acetic acid]",50 to 500,10000 to 30000
"CNc1cc2[nH]c(=O)n(-c3ccc(C(=O)NC(C(=O)O)c4ccc(Cl)s4)cc3)c(=O)c2cc1F (stereo not shown) [Compound 13, 2-(5-chlorothiophen-2-yl)-2-(4-(6-fluoro-7-(methylamino)-2,4-dioxo-1,2-dihydroquinazolin-3(4H)-yl)benzamido)acetic acid]",50 to 500,< 10000
CNc1cc2c(cc1F)C(=O)N(c1ccc(C(=O)N(CC(=O)O)Cc3ccc(Cl)s3)cc1)CO2 [Compound 55],50 to 500,> 30000
"CNc1cc2c(cc1F)C(=O)N(c1ccc(C(=O)NC(c3noc(=O)[nH]3)c3ccc(Cl)s3)cc1)CO2 (stereo not shown) [Compound 71, N-((5-chlorothiophen-2-yl)(5-oxo-4,5-dihydro-1,2,4-oxadiazol-3-yl)methyl)-4-(6-fluoro-7-(methylamino)-4-oxo-2H-benzo[e][1,3]oxazin-3(4H)-yl)benzamide]",< 50,10000 to 30000
"CNc1cc2c(cc1F)C(=O)N(c1ccc(C(=O)NC(c3ccc(Cl)s3)c3nccs3)cc1)CO2 (stereo not shown) [Compound 82, N-((5-chlorothiophen-2-yl)(thiazol-2-yl)methyl)-4-(6-fluoro-7-(methylamino)-4-oxo-2H-benzo[e][1,3]oxazin-3(4H)-yl)benzamide]",50 to 500,> 30000
"CNc1cc2c(=O)n(-c3ccc(C(=O)NC(c4noc(=O)[nH]4)c4ccc(Cl)s4)cc3)c(=O)[nH]c2cc1F (stereo not shown) [Compound 50, N-((5-chlorothiophen-2-yl)(5-oxo-4,5-dihydro-1,2,4-oxadiazol-3-yl)methyl)-4-(7-fluoro-6-(methylamino)-2,4-dioxo-1,2-dihydroquinazolin-3(4H)-yl)benzamide]",50 to 500,> 30000
"O=C(NC(C(=O)O)c1cccs1)c1ccc(-n2c(=O)[nH]c3cc(NCc4ccc(F)cc4)ccc3c2=O)cc1 (stereo not shown) [Compound 2, 2-(4-(7-(4-fluorobenzylamino)-2,4-dioxo-1,2-dihydroquinazolin-3(4H)-yl)benzamido)-2-(thiophen-2-yl)acetic acid]",50 to 500,> 30000
CNc1cc2c(cc1F)C(=O)N(c1ccc(C(=O)NC(C(N)=O)c3ccc(Cl)s3)cc1)CO2 (stereo not shown) [Compound 70],50 to 500,10000 to 30000
"CNc1cc2c(cc1F)C(=O)N(c1ccc(CNC(C(=O)O)c3ccc(Cl)s3)cc1)CO2 (stereo not shown) [Compound 105, 2-(5-chlorothiophen-2-yl)-2-(4-(6-fluoro-7-(methylamino)-4-oxo-2H-benzo[e][1,3]oxazin-3(4H)-yl)benzylamino)acetic acid]",50 to 500,> 30000
"CNc1cc2[nH]c(=O)n(-c3ccc(C(=O)NC(C(=O)O)c4ccc(C)s4)cc3)c(=O)c2cc1F (stereo not shown) [Compound 19, 2-(4-(6-fluoro-7-(methylamino)-2,4-dioxo-1,2-dihydroquinazolin-3(4H)-yl)benzamido)-2-(5-methylthiophen-2-yl)acetic acid]",50 to 500,< 10000
"CNc1cc2[nH]c(=O)n(-c3ccc(C(=O)NC(c4noc(=O)[nH]4)c4ccc(Cl)s4)cc3OC)c(=O)c2cc1F (stereo not shown) [Compound 53, N-((5-chlorothiophen-2-yl)(5-oxo-4,5-dihydro-1,2,4-oxadiazol-3-yl)methyl)-4-(6-fluoro-7-(methylamino)-2,4-dioxo-1,2-dihydroquinazolin-3(4H)-yl)-3-methoxybenzamide]",50 to 500,> 30000
"CNc1cc2[nH]c(=O)n(-c3ccc(C(=O)NC(C(=O)O)c4ccc(Cl)s4)c(F)c3)c(=O)c2cc1F (stereo not shown) [Compound 44, 2-(5-chlorothiophen-2-yl)-2-(2-fluoro-4-(6-fluoro-7-(methylamino)-2,4-dioxo-1,2-dihydroquinazolin-3(4H)-yl)benzamido)acetic acid]",50 to 500,10000 to 30000
